Assay [1] concerns the target T1, 11beta-HSD1 (Homo sapiens, UniProt P28845). Briefly: Microsome assay (cortisone to cortisol, ELISA). It is filed as biochemical. Details: made in house; host or cells: HEK293 cells (ATCC CRL-1573), transient transfection with pcDNA3 construct; microsomal fraction. The following applies: microsomes from HEK293 cells transiently expressing human 11beta-HSD1; 60 min, 37° C.; cortisol production 50% reduced; read-out: h 11-beta-HSD 1 IC50. The method, then:
Transient Expression and Partial Purification:
The cDNA encoding the human 11beta-HSD1 protein was cloned into the expression vector pcDNA3 ([…]). This construct (for details see Alex Odermatt et al.; J Biol Chem.,1999, Vol. 274, Issue 40, 28762-28770) was used to transiently express the protein in HEK293 cells (ATCC number: CRL-1573, described in Graham, F. L., Smiley, J., Russell, W. C., Nairn, R.; (1977)) using lipofectamine. 48h after transfection cells were washed twice with ice-cold PBS (Phsophate buffered Saline). To 1 volume of cell suspension in PBS 2 volumes of ice-cold lysis buffer (50 mM Tris; pH7.5; 1 mM EDTA; 100 mM NaCl) were added. The cells were lysed by Potter-homogenization (20 strokes). The resulting homogenate was sonicated wit a tip sonicator (10% output; 2×30 sec.) and cleared by a low speed centrifugation (10 min×9000 g; 4° C.). […]
Microsomes isolated from HEK293 cells transiently expressing human 11beta-HSD1 (for details see above) were incubated in assay buffer (100 mM NaCl; 1 mM EDTA; 1 mM EGTA; 1 mM MgCl; 250 mM Sucrose; 20 mM Tris pH 7.4; Cortisone 50-200 nM and NADPH 1 mM) together with different concentrations of test substances. […] The amount of Cortisol produced in this assay was determined using a commercially available, ELISA-based Cortisol-detection kit (Distributed by Assay Design, Inc.). […]
Background: An ELISA detects its analyte on a solid surface through an enzyme-linked reagent.

In assay [2] the target is T1, 11beta-HSD1. Details: host or cells: human subjects (in vivo). Particulars: humans, treatment with carbenoxolone; cited from earlier work.

T1 sequence (P28845 whole entry): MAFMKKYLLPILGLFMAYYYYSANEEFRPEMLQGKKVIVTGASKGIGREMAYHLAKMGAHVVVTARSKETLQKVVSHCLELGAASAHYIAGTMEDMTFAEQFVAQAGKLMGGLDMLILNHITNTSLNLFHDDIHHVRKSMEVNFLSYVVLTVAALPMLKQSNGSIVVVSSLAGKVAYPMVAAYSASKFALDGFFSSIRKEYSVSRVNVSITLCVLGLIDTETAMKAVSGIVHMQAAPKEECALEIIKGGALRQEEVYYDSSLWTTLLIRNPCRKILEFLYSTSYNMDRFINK

As usually defined, the IC50 is the concentration that gives 50% inhibition. Consider `Cc1c(Cl)cccc1S(=O)(=O)Nc1ccc(Oc2ccc(F)cc2)cn1` [Example 186, 3-Chloro-N-[5-(4-fluoro-phenoxy)-pyridin-2-yl]-2-methyl-benzenesulfonamide benzenesulfonamide], for which the IC50 in assay [1] stood at 5 nM. For `CC1(C)[C@@H](OC(=O)CCC(=O)O)CC[C@]2(C)[C@H]3C(=O)C=C4[C@@H]5C[C@@](C)(C(=O)O)CC[C@]5(C)CC[C@@]4(C)[C@]3(C)CC[C@@H]12` [carbenoxolone], the insulin sensitivity result in assay [2] was “increase in insulin sensitivity”.

In the case of `O=S(=O)(Nc1cccc(COCc2ccc(F)cc2)n1)c1ccc(F)cc1` [Example 105, 4-Fluoro-N-[6-(4-fluoro-benzyloxymethyl)-pyridin-2-yl]-benzenesulfonamide], the IC50 in assay [1] was 16 nM.

The values above are taken from patent US7482341B2, “Pyridines” (Hoffmann-La Roche Inc., priority 2004, dated 2009).
